These are literature values, as cited in PMC11238383, “A review on the cultivation, bioactive compounds, health-promoting factors and clinical trials of medicinal mushrooms Taiwanofungus camphoratus, Inonotus obliquus and Tropicoporus linteus” (Fungal Biology and Biotechnology, 2024).

One may read the IC50 as the point on the concentration scale where inhibition reaches its midpoint. One may read the EC50 as the concentration that produces a half-maximal response.

Converted amounts (≈) assume the structure as drawn. Like-named read-outs stand apart in the source and are kept apart here.

The subject of series [1] is Polyinosinic-polycytidylic acid (poly IC)-induced RAW 264.7 cells.
The subject of a further series is P. gingivalis. To be noted: ref [131], [132], [133].
In a further series the test system is Influenza A H1N1 virus. Also noted: method as in Hwang et al. [13]. To be noted: 10 uM; ref Hwang et al. [13].
The next series deals with H1N1 neuraminidase. The following applies: ref [13].
The conditions of series [2]: for antioxidant activity: ref Lee et al. [226]; for reducing power: ref [133].
A further series deals with MDA-MB-231 cells. To be noted: 10 µg/mL alone; ref [226].
Series [3] deals with human cancer cells (U251, HL60, SW480, and A549). The following applies: ref [63].
A further series has as its system normal cells (LO2). The following applies: ref [63].
The subject of series [4] is Severe acute respiratory syndrome coronavirus 2 (SARS-CoV-2) virus-infected HepG2 cells. The arrangement: method as in Li et al. [35], [38]. To be noted: ref Li et al. [35], [38].
The next series has as its system MIN6N beta-cells. The arrangement: method as in Lee et al. [235]. The following applies: 10–70 uM, dose-dependent, ref Lee et al. [235].
Series [5] concerns Oleic and palmitic acids (O/P) lipid accumulation-induced HepG2 cells. Also noted: method as in Chiu et al. [138]. The following applies: ref Chiu et al. [138].
In another series the test system is NO. The arrangement: method as in Park et al. [99]. To be noted: ref Park et al. [99].
The test system of series [6] is AGS, MCF-7, and PC3 cancer cells. Also noted: method as in PMID 32899899. The following applies: ref [95].
Series [7] relates to mouse melanoma and human lung cancer cells. The arrangement: method as in PMID 18239302. The following applies: ref [135].
The test system of a further series is U251 and MCF-7. The arrangement: method as in PMID 31891260. The following applies: ref [61].
On the set-up of series [8]: method as in PMID 31891260. To be noted: ref [61].
In series [9] the test system is human adenocarcinoma and human lung carcinoma cell lines. The arrangement: method as in doi:10.1016/j.jff.2020.104025. The following applies: ref [97].
The next series relates to human glioblastoma cells. The arrangement: method as in Yang et al. [70]. To be noted: in vitro; ref Yang et al. [70].
Series [10] deals with glioblastoma-xenografted mice. The arrangement: method as in Yang et al. [70]. To be noted: in vivo; ref Yang et al. [70].
Another series relates to aldose reductase. The arrangement: method as in Lee et al. [136]. To be noted: ref Lee et al. [136].
In the next series the test system is A549 and HeLa cell lines. The following applies: ref [105].
Series [11] deals with H2O2)-injured human neuroblastoma cells. The arrangement: method as in PMID 33084385. To be noted: ref [108].
Details of series [12]: method as in Zhang et al. [179]. To be noted: DPPH assay; ref Zhang et al. [179].
Series [13] has as its system inducible-nitric oxide synthase (iNOS) protein. The arrangement: method as in PMID 33434790. The following applies: ref [107].

With 4-acetylantroquinonol B, the IC50 in [1] (ref Tu et al. [186], read-out: IC50 of NO production) is 0.57 µM. In [1] (ref [72]), the NO production result is recorded as “significantly inhibited”.

In the case of `C=C1CCCC(C)(C)C1CC/C(C)=C/CO` (single isomer, unassigned; (-)) [(-)-trans-γ-monocyclofarnesol], the antimicrobial activity entry in the series with P. gingivalis was “antimicrobial effects”.

Turning to `CC(=O)C=Cc1ccc(O)c(O)c1` [4-(3,4-Dihydroxyphenyl)-3-buten-2-one], the visible cytopathic effects in the series on Influenza A H1N1 virus is given as 10 uM of both inhibited the formation of visible cytopathic effects, with IC50 values lower than Oseltamivir. For the same compound, on H1N1 neuraminidase, the IC50 was 52 µM and the neuraminidase activity entry is “inhibit neuraminidase activity”. Also, the antioxidant activity entry in series [2] is “Potent antioxidant activity, with higher antioxidant activity than BHA and Trolox in FRAP assay”.

Consider `O=c1[nH]cc(F)c(=O)[nH]1` [5-fluorouracil], for which, in the series on MDA-MB-231 cells, the “inhibition in cell growth” value is given as 12.6%.

On to `C=C1CC(O)CC(C)(C)C1/C=C/C(C)=C/C(=O)O` (stereo not shown) [(2E,4E)-4′-Hydroxy-γ-ionylideneacetic acid], for which, in [2], the reducing power result is “weak reducing power”.

With `C=C1CCCC(C)(C)C1/C=C/C(C)=C/C(=O)O` (stereo not shown) [(2E,4E)-γ-Ionylideneacetic acid], in [2], the reducing power entry is listed as “weak reducing power”.

As to `C=C1CCCC(C)(C)C1C=CC(C)=CC(=O)O` (stereo not shown) [( +)-γ-ionylideneacetic acid], the antimicrobial activity entry in the series with P. gingivalis is recorded as “did not show any detectable activities”.

Regarding `C=C(CC[C@@H](C)[C@H]1CC[C@@]2(O)C3=C(C(=O)C[C@]12C)[C@@]1(C)CCC(=O)[C@@H](C)[C@@H]1CC3=O)C(C)C(=O)OCC` (stereo partly shown) [Antcamphin Z], the cytotoxicity entry in series [3] is “potent cytotoxic activities”. The “effect on normal cells” value in the series with normal cells (LO2) is “no significant effects on normal cells”.

On to `O=C(O)/C=C/c1ccc(O)c(O)c1` [Caffeic acid, caffeic acid], for which the antioxidant activity result in series [2] was “Potent antioxidant activity, with higher antioxidant activity than BHA and Trolox in FRAP assay”.

In the case of `O=c1cc(O)cc(/C=C/c2ccc(O)c(O)c2)o1` [Hispidin, hispidin], in series [4], the ACE2 gene expression entry is listed as “Reduced the expression of angiotensin-converting enzyme 2 (ACE2) gene”. In addition, the “highest ROS scavenging activity” value in the series with MIN6N beta-cells is on record as 10–70 uM had notable reactive oxygen species (ROS) scavenging activity in a dose-dependent manner, with the highest activity being 65%; in the series with MIN6N beta-cells (listed as hispidin), “about 65%”. Further, the lipid accumulation result in series [5] was “Significant reduction in lipid accumulation”.

For the compound `CC(C)=CC[C@@H](O)[C@@H](C)[C@H]1CC[C@@]2(C)C3=C(CC[C@]12C)[C@@]1(C)CC[C@H](O)C(C)(C)[C@@H]1CC3` [Inotodiol], the NO inhibition result in the series with NO was “NO-inhibiting effects”. In addition, in series [6], the anti-proliferative activity result is listed as “anti-proliferative activities”.

Take `CCOC(=O)C1=C[C@@H](OC(CC)CC)[C@H](NC(C)=O)[C@@H](N)C1` [Oseltamivir, reference compound]: the IC50 at H1N1 neuraminidase was 64 µM.

With `O=c1oc(/C=C/c2ccc(O)c(O)c2)cc2oc(-c3ccc(O)c(O)c3)cc12` [Phellifuropyranone A], in [7], the antiproliferative activity result is listed as “antiproliferative activity”.

Regarding `CC1=CC[C@@H]([C@@](C)(O)[C@@H]2C[C@H]2C(C)(C)O)CC1` [Phellilane L], in the series on P. gingivalis, the antimicrobial activity result was “antimicrobial activities”.

For the compound `C/C=C(\CO)CC[C@@H](C)[C@H]1CC[C@H]2C3=C(C(=O)C[C@]12C)[C@@]1(C)CC[C@@H](O)[C@](C)(O)[C@@H]1C[C@@H]3O` [antcamphorol C], the cytotoxicity entry in the series on U251 and MCF-7 is reported as “cytotoxic activities”.

For `C=C(CC[C@@H](C)[C@H]1CC[C@H]2C3=CC[C@H]4[C@H](C)[C@@H](O)CC[C@]4(C)C3=C[C@@H](O)[C@]12C)C(C)C` [antcamphorol H], the cytotoxicity result in the series with U251 and MCF-7 was “cytotoxic activities”.

On to `C=C(CC[C@@H](C)[C@H]1CC[C@H]2C3=C(C(=O)C[C@]12C)[C@@]1(C)CCC(=O)[C@@H](C)[C@@H]1C[C@H]3O)C(C)C` [antcamphorol J], for which the ROS scavenging result in [8] was “ROS scavenging abilities”.

Take `C=C(C)[C@@H]1CC[C@]2(CO)CC[C@]3(C)[C@H](CC[C@@H]4[C@@]5(C)CC[C@H](O)C(C)(C)[C@@H]5CC[C@]43C)[C@@H]12` [betulin]: in series [9], the proliferation result is recorded as “inhibited the proliferation”.

For `C=C(C)[C@@H]1CC[C@]2(C(=O)O)CC[C@]3(C)[C@H](CC[C@@H]4[C@@]5(C)CC[C@H](O)C(C)(C)[C@@H]5CC[C@]43C)[C@@H]12` [betulinic acid], the proliferation entry in series [9] is “inhibited the proliferation”.

With `COC1=C(OC)C(=O)C(C)=CC1=O` [coenzyme Q0, 2,3-dimethoxy-5-methyl-1,4-benzoquinone], the “apoptosis and autophagic cell death” value was “inducing apoptosis and autophagic cell death” in the series on human glioblastoma cells; “inducing apoptosis and autophagic cell death” in series [10].

Take `CC1=CC(=O)[C@H](c2c(O)cc(/C=C/c3ccc(O)c(O)c3)oc2=O)[C@@H](c2ccc(O)c(O)c2)O1` [davallialactone]: the aldose reductase inhibition result in the series on aldose reductase is given as “capable of inhibiting aldose reductase”.

Consider `O=c1oc2c(O)c(O)cc3c(=O)oc4c(O)c(O)cc1c4c23` [ellagic acid], for which the aldose reductase inhibition entry with aldose reductase is listed as “capable of inhibiting aldose reductase”.

On to `CC(C)(O)[C@H]1CC[C@H]([C@H]2CC[C@@]3(C)C4=C(CC[C@]23C)[C@@]2(C)CC[C@H](O)C(C)(C)[C@@H]2CC4)[C@H]1O` [inonotsutriol A], for which the NO inhibition result in the series with NO is “NO-inhibiting effects”.

For the compound `C[C@H](/C=C/C=O)[C@H]1CC[C@@]2(C)C3=C(CC[C@]12C)[C@@]1(C)CC[C@H](O)C(C)(C)[C@@H]1CC3` [inonotusane C], in the series with A549 and HeLa cell lines, the cytotoxicity result is “cytotoxic activities”.

Take `CC1=CC(=O)C2(O1)c1c(cc(/C=C/c3ccc(O)c(O)c3)oc1=O)OC2c1ccc(O)c(O)c1` (stereo not shown) [inoscavin A]: the cell viability result in series [11] is recorded as “improve cell viabilities”.

In the case of `C=C1CCCC(C)(C)[C@H]1[C@H]1O[C@@H]1/C(C)=C/C(=O)O` [phellidene E], the antimicrobial activity entry in the series with P. gingivalis was “did not show any detectable activities”.

Turning to `O=C1C=C(/C=C/c2ccc(O)c(O)c2)OC12C(c1cc3oc(=O)c4cc(O)c(O)cc4c3c(=O)o1)=Cc1cc(O)c(O)cc12` (stereo not shown) [phelligridin G], the antiproliferative activity result in series [7] is recorded as “antiproliferative activity”.

Take `CC(C)(C)c1cc(O)ccc1O` [tert-Butylhydroquinone (TBHQ), tert-Butylhydroquinone]: in series [12], the EC50 is 11.2 µg/mL (≈ 67.4 µM).

Turning to `CC(C)=CCC[C@@H](C(=O)O)[C@H]1CC[C@@]2(C)C3=C(CC[C@]12C)[C@@]1(C)CC[C@H](O)C(C)(C)[C@@H]1CC3` [trametenolic acid], the NO inhibition result with NO is “NO-inhibiting effects”. The anti-proliferative activity result in series [6] is “anti-proliferative activities”.

`O=C1O[C@H]([C@@H](O)CO)C(O)=C1O` [vitamin C, ascorbic acid]: the EC50 in [12] is on record as 6 µg/mL (≈ 34.1 µM).

On to antcamphorol G, for which the ROS scavenging entry in series [8] is “ROS scavenging abilities”.

With antcamphorol I, the ROS scavenging result in series [8] is “ROS scavenging abilities”.

antroquinonol Y: in series [3], the cytotoxicity entry is listed as “significant cytotoxic effects”. In addition, the “effect on normal cells” value in the series with normal cells (LO2) is given as “without affecting normal cells”.

For the compound inonotusol I, in series [13], the “interaction with iNOS protein” value was “capable of interacting with inducible-nitric oxide synthase (iNOS) protein”.

With inonotusol L, the “interaction with iNOS protein” value in series [13] was “capable of interacting with inducible-nitric oxide synthase (iNOS) protein”.

As for phellilane H, the reducing power result in [2] is reported as “weak reducing power”. The antimicrobial activity entry with P. gingivalis is reported as “did not show any detectable activities”.
